In ChEMBL document CHEMBL4325871 (Eur J Med Chem, 2019) one finds inhibition and Activity data, which are given here for two compounds.

SMILES strings stand for the structures.

Test [1] concerns the target T1, Serine/threonine-protein kinase Chk1 (Homo sapiens) (UniProt O14757).
T1 sequence (whole entry): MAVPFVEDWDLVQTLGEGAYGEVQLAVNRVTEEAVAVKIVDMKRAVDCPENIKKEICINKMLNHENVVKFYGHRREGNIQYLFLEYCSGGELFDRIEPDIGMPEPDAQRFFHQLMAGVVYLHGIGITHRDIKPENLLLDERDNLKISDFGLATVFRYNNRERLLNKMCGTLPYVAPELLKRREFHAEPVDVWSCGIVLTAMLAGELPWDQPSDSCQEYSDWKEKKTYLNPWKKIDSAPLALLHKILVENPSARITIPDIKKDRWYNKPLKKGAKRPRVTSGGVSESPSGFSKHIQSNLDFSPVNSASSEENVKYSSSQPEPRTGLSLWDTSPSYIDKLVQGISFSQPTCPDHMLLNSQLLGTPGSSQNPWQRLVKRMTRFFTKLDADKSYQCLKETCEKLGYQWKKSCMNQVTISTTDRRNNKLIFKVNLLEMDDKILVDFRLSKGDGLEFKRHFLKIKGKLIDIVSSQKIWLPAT
Put plainly: Inhibition of CHK1 phosphorylation at S296 residue in human FOLFOX-resistant HT-29 cells after 24 hrs by Western blot analysis.

The target of test [2] is MAP kinase-interacting serine/threonine-protein kinase 2 (Homo sapiens) (UniProt Q9HBH9). Put plainly: Inhibition of human MNK2 assessed as residual activity at 1 uM using MBP as substrate by [gamma-33P]-ATP assay relative to control.
The target in test [3] is Serine/threonine-protein kinase WNK1 (Homo sapiens) (UniProt Q9H4A3). Put plainly: Inhibition of human WNK1 assessed as residual activity at 1 uM using MBP as substrate by [gamma-33P]-ATP assay relative to control.
Test [4] deals with Interleukin-1 receptor-associated kinase 4 (Homo sapiens) (UniProt Q9NWZ3). Put plainly: Inhibition of human IRAK4 assessed as residual activity at 1 uM using MBP as substrate by [gamma-33P]-ATP assay relative to control.
Test [5] has as its target T1, Serine/threonine-protein kinase Chk1 (Homo sapiens). Put plainly: Inhibition of CHK1 phosphorylation at S345 residue in human FOLFOX-resistant HCT116 cells after 24 hrs by Western blot analysis.
Test [6] addresses Dual specificity protein kinase CLK3 (Homo sapiens) (UniProt P49761). Description: Inhibition of human CLK3 assessed as residual activity at 1 uM using MBP as substrate by [gamma-33P]-ATP assay relative to control.
The target of test [7] is Serine/threonine-protein kinase TAO3 (Homo sapiens) (UniProt Q9H2K8). Description: Inhibition of human TAOK3 assessed as residual activity at 1 uM using MBP as substrate by [gamma-33P]-ATP assay relative to control.
Test [8] deals with Platelet-derived growth factor receptor beta (Homo sapiens) (UniProt P09619). Put plainly: Inhibition of human PDGFRbeta assessed as residual activity at 1 uM using poly[Glu:Tyr] (4:1) as substrate by [gamma-33P]-ATP assay relative to control.
Test [9] deals with Vascular endothelial growth factor receptor 1 (Homo sapiens) (UniProt P17948). Put plainly: Inhibition of human FLT1 assessed as residual activity at 1 uM using poly[Glu:Tyr] (4:1) as substrate by [gamma-33P]-ATP assay relative to control.
For test [10], the target named is Serine/threonine-protein kinase WNK3 (Homo sapiens, UniProt Q9BYP7). Description: Inhibition of human WNK3 assessed as residual activity at 1 uM using MBP as substrate by [gamma-33P]-ATP assay relative to control.
The target of test [11] is CDC7/DBF4 (Cell division cycle 7-related protein kinase/Activator of S phase kinase) (Homo sapiens) (UniProt Q9UBU7+O00311). Put plainly: Inhibition of human CDC7/DBF4 assessed as residual activity at 1 uM using KTFCGTPEYLAPEVRREPRILSEEEQEMFRDFDYIADWC as substrate by [gamma-33P]-ATP assay relative to control. Type of test: protein-complex assay.
Test [12] has as its target Protein kinase C alpha type (Homo sapiens) (UniProt P17252). Description: Inhibition of human PKCalpha assessed as residual activity at 1 uM using ERMRPRKRQGSVRRRV as substrate by [gamma-33P]-ATP assay relative to control.
For test [13], the target named is Insulin receptor (Homo sapiens) (UniProt P06213). Description: Inhibition of human IR assessed as residual activity at 1 uM using poly[Glu:Tyr] (4:1) as substrate by [gamma-33P]-ATP assay relative to control.
Test [14] deals with Protein kinase C epsilon type (Homo sapiens) (UniProt Q02156). Put plainly: Inhibition of human PKCepsilon assessed as residual activity at 1 uM using ERMRPRKRQGSVRRRV as substrate by [gamma-33P]-ATP assay relative to control.
Test [15] addresses T1, Serine/threonine-protein kinase Chk1 (Homo sapiens). Put plainly: Inhibition of CHK1 phosphorylation at S317 residue in human FOLFOX-resistant HCT116 cells after 24 hrs by Western blot analysis. (In general: A western blot detects proteins with antibodies after separation by electrophoresis.)
Test [16] concerns the target Casein kinase II subunit alpha' (Homo sapiens) (UniProt P19784). Description: Inhibition of human CK2A2 assessed as residual activity at 1 uM using RRRDDDSDDD as substrate by [gamma-33P]-ATP assay relative to control.
Test [17] concerns the target Serine/threonine-protein kinase Nek3 (Homo sapiens) (UniProt P51956). Description: Inhibition of human NEK3 assessed as residual activity at 1 uM using MBP as substrate by [gamma-33P]-ATP assay relative to control.
Test [18] deals with T2, Serine/threonine-protein kinase A-Raf (Homo sapiens) (UniProt P10398).
T2 sequence (whole entry): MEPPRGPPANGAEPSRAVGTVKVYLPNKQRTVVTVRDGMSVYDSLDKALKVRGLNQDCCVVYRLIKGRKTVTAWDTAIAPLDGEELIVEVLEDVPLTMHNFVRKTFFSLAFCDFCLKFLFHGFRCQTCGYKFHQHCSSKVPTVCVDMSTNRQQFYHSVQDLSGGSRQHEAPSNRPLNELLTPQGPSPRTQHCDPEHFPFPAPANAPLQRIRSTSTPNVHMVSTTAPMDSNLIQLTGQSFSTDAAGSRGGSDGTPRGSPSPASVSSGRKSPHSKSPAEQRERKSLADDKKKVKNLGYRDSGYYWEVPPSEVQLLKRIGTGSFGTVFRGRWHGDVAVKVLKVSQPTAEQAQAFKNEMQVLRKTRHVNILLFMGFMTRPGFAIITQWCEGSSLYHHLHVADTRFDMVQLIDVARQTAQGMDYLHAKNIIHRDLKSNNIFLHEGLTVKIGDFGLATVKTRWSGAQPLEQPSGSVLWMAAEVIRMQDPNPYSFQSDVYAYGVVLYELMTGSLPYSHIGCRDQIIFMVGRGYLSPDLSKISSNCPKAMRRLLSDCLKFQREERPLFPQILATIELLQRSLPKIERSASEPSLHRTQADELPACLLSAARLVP
Put plainly: Inhibition of human ARAF assessed as residual activity at 1 uM using MEK1 as substrate by [gamma-33P]-ATP assay relative to control.

The target of test [19] is Casein kinase I isoform alpha (Homo sapiens) (UniProt P48729). Put plainly: Inhibition of human CK1a1 assessed as residual activity at 1 uM using KRRRAL[pS]VASLPGL as substrate by [gamma-33P]-ATP assay relative to control.
Chain of Casein kinase I isoform alpha (Homo sapiens) (P48729 2-337 limits assumed): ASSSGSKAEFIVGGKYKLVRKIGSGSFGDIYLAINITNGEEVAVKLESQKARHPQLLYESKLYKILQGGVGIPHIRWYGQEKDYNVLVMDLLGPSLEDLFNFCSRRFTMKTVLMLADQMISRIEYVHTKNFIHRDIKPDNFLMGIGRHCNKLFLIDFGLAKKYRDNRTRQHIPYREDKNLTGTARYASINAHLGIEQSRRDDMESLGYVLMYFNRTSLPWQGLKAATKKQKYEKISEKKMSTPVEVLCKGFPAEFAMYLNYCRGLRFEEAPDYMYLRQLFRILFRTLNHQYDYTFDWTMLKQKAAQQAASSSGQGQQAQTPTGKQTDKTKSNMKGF

Chain of Serine/threonine-protein kinase WNK3 (Q9BYP7 whole entry): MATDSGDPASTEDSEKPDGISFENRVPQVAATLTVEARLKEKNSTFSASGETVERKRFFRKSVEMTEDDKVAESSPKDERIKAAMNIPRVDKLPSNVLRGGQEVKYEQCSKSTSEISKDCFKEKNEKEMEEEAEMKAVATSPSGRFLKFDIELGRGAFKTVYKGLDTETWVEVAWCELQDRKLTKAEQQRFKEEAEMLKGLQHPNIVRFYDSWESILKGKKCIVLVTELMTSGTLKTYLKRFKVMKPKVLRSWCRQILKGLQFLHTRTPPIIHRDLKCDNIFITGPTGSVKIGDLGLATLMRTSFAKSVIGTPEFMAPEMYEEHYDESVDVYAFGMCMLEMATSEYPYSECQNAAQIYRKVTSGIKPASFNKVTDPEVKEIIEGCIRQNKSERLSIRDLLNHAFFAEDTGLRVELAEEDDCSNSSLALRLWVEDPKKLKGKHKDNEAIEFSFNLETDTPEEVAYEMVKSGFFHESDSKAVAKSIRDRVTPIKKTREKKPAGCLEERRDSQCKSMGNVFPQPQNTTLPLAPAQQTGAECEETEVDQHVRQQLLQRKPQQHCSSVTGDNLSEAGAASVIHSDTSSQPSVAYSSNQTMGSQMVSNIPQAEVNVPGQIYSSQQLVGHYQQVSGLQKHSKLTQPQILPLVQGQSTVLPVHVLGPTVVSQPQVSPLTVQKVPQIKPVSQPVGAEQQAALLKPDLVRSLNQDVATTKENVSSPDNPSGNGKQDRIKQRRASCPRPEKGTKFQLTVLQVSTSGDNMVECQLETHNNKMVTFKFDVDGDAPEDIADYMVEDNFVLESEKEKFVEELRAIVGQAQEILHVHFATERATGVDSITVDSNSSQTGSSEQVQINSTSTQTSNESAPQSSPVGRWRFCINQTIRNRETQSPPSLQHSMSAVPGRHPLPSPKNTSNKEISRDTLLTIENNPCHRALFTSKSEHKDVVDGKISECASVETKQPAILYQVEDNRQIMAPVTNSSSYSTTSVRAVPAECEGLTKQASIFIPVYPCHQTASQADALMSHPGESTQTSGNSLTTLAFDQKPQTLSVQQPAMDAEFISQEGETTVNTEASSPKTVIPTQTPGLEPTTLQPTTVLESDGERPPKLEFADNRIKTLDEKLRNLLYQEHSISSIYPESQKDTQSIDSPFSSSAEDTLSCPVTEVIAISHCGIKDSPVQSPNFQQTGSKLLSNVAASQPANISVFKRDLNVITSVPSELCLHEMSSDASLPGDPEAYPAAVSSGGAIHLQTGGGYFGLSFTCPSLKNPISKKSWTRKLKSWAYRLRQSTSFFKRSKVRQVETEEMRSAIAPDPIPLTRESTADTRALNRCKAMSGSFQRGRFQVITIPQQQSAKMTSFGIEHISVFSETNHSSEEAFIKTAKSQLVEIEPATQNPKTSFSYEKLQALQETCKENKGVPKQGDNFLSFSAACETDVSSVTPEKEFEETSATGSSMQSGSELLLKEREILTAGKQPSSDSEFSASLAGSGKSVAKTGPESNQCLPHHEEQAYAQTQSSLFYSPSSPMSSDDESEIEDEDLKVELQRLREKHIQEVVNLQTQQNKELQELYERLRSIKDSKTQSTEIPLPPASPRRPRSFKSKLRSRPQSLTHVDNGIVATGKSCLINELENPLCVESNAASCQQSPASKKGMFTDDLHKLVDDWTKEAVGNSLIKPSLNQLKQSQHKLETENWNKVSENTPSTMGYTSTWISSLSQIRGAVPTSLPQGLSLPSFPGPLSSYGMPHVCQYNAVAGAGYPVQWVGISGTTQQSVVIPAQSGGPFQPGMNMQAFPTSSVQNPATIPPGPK
Chain of Casein kinase II subunit alpha' (Homo sapiens) (P19784 whole entry, looked up): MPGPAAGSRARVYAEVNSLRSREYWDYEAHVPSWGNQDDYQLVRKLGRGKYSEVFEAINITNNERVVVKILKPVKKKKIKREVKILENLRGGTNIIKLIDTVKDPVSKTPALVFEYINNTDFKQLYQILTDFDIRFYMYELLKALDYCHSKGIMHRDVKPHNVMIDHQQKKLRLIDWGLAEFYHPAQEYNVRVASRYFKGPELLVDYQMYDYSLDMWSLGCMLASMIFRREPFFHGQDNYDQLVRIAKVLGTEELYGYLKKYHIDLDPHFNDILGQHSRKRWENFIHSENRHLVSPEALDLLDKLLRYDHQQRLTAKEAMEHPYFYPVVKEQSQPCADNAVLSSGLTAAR
Chain of Serine/threonine-protein kinase TAO3 (Homo sapiens) (Q9H2K8 whole entry): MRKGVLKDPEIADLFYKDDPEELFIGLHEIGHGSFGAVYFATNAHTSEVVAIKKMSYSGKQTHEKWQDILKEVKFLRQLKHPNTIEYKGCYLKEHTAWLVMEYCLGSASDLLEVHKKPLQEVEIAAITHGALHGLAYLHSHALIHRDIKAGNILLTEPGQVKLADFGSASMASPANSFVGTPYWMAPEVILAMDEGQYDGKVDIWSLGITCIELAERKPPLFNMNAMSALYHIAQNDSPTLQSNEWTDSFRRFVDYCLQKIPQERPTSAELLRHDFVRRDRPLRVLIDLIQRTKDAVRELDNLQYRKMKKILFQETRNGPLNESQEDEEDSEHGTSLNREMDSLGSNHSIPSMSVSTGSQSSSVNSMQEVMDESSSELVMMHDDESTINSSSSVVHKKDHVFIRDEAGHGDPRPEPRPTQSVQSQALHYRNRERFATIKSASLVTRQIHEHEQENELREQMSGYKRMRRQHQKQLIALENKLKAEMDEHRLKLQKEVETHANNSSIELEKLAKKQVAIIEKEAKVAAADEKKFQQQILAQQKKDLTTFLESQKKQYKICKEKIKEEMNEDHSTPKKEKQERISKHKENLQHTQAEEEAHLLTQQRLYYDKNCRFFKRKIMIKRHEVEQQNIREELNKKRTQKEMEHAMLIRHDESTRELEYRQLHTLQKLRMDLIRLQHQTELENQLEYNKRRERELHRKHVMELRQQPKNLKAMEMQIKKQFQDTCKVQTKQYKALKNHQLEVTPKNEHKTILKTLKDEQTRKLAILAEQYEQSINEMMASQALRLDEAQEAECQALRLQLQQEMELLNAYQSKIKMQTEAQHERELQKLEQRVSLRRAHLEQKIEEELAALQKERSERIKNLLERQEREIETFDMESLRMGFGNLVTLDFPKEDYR
Chain of Protein kinase C epsilon type (Homo sapiens) (Q02156 whole entry): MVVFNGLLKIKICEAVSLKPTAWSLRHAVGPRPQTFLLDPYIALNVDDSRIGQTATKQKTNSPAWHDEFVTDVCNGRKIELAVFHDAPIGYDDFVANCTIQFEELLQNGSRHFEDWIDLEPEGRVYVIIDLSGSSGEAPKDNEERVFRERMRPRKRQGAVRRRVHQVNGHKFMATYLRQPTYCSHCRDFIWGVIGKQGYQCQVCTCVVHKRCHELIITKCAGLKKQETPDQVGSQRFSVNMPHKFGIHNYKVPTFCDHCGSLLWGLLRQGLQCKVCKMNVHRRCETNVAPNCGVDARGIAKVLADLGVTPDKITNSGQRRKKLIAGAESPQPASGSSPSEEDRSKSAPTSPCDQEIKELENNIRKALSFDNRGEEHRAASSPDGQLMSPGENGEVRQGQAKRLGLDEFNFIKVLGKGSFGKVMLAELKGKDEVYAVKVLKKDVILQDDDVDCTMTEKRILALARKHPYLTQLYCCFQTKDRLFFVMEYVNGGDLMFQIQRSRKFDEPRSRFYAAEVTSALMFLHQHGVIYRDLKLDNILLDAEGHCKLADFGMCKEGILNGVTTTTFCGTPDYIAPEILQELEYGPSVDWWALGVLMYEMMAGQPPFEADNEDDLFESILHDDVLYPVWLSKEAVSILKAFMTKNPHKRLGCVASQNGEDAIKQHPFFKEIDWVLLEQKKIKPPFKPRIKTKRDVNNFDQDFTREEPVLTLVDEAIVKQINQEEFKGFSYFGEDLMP
Chain of MAP kinase-interacting serine/threonine-protein kinase 2 (Homo sapiens) (Q9HBH9 whole entry, looked up): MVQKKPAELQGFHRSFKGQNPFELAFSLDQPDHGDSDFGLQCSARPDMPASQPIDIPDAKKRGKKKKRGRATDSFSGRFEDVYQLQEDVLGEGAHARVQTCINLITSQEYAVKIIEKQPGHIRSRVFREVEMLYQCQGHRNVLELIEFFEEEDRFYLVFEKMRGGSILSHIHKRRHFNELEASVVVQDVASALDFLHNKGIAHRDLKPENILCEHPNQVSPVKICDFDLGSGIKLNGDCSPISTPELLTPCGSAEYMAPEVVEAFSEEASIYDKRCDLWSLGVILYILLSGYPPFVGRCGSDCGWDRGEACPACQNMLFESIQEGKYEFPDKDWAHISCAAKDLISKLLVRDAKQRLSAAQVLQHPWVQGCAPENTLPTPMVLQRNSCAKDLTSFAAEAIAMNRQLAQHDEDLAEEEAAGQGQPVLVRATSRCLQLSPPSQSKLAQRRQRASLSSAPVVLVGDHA
Chain of Interleukin-1 receptor-associated kinase 4 (Homo sapiens) (Q9NWZ3 whole entry): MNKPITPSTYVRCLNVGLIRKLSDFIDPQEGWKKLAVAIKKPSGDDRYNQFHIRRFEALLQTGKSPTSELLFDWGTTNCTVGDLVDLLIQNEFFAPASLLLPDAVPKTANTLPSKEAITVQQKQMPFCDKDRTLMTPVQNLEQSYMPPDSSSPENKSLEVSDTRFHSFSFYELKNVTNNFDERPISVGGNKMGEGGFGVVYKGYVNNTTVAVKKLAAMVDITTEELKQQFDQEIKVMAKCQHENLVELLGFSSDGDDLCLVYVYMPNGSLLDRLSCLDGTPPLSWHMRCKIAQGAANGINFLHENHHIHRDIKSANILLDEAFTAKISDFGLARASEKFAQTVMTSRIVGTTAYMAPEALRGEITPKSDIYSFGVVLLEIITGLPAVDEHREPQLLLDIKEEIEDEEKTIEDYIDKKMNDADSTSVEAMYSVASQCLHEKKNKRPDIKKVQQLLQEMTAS

As for `ClC/C=C/C[N+]12CN3CN(CN(C3)C1)C2`, the inhibition result in [1], in test [5] and in [15] was “Dose-dependent effect” throughout. Also, the Activity in test [2] fell in the range of 91.2 to 92.6%; in test [3], 92.5 to 94.9%; in [4], 91.5 to 92.7%; in test [6], 92.6 to 95.8%; in test [7] it was 94.1 to 94.7%; in [8], 90.5 to 92%. Moreover, the Activity in test [9] lay within 94.7 to 95.5%; in [10] it was 90.2 to 91.3%; in test [11], 93.8 to 95.8%; in [12] it was 93.9 to 94.3%; in test [13], 95 to 96.7%; in test [14], 121 to 133%. Moreover, the Activity was in the range of 117 to 118% in [16], 86.9 to 92.5% in test [17], 93.8 to 95.3% in [18] and 95.6 to 96.5% in test [19].
Regarding `C(=C\c1ccccc1)/C[N+]12CN3CN(CN(C3)C1)C2`, the inhibition entry in [1], in [5] and in test [15] was “Dose-dependent effect” throughout. Also, the Activity in test [2] fell in the range of 93 to 95.7%; in test [3], 93.6 to 94.3%; in test [4], 92.1 to 96.8%; in test [6], 96.2 to 96.9%; in test [7], 92.8 to 93.1%; in [8], 91.9 to 93.1%. The Activity in test [9] lay within 96.1 to 97.1%; in test [10], 92.3 to 93%; in test [11] it was 94 to 94.4%; in test [12], 94 to 95.2%; in test [13], 96 to 96.4%; in [14], 121 to 126%. Besides, the Activity was 122% in test [16], 88.4 to 92.3% in test [17], 92 to 97% in test [18] and 94.9 to 96.5% in test [19].
